According to paper PMC12067741, “Inhibition of SOD1 trimerization is a novel drug target for ALS disease” (Translational Neurodegeneration, 2025):
Where two headings read alike, the source gives them in different places.

Assays:
[1] = Metabolic stability in liver microsomes; format: in vitro ADME; details: SD rat liver microsomes
[2] = Plasma stability; format: in vitro ADME; details: cynomolgus monkey plasma, after 120 min of incubation
[3] = Plasma stability; format: in vitro ADME; details: human plasma, after 120 min of incubation
[4] = target: CYP 2B6 (Homo sapiens, UniProt P20813)
From the text: (§1) Fig. S8. Preclinical data of PRG-A-04 a Plasma protein binding b CYP inhibition(direct) […]
(§2) d Mouse Brain Tissue penetration
(§3) For the convenience of calculation, […]

[5] = target: CYP 2C8 (Homo sapiens, UniProt P10632)
From the text: as §1, §2, §3

[6] = target: CYP 2C9 (Homo sapiens, UniProt P11712)
From the text: as §1, §2, §3

[7] = target: CYP 2D6 (Homo sapiens, UniProt P10635)
From the text: as §1, §2, §3

[8] = target: CYP2C19 (Homo sapiens, UniProt P33261)
From the text: as §1, §2, §3

[9] = test system: plasma proteins
From the text: as §1, §2, §3

[10] = mouse, in vivo, po, 20 mg/kg
From the text: Next, we checked the basic in vitro ADME test including pharmacokinetics, plasma protein binding, CYP (Cytochrome P450) inhibition, metabolic stability and blood–brain barrier (BBB) permeability. […] We also plan to test safety panel assay in the future to obtain safety data for the drug.
as §1, §2, §3

[11] = target: T1, GST-SOD1-G93A recombinant protein (MT-SOD1) (Homo sapiens, UniProt P00441, G94A); test: GST pull-down with LC-MS/MS of protein-bound compound; format: binding; details: GST pull-down and LC-MS/MS
T1 construct: made in house; host or cells: Escherichia coli BL21 (DE3), pCold GST vector
Experimental: To prepare a calibration curve within the PRG-A-04 concentration range of 1–50 ppb, standard solutions (1, 5, 10, 25, 50 ppb) were prepared by dilution with 90% methanol. GST, GST-SOD1 WT, and GST–SOD1-G93A recombinant proteins bound to GST agarose were incubated overnight with PRG-A-04 (20 μmol/L) in cold chamber (4 °C). The samples were washed three times to remove unbound PRG-A-04 from the proteins. The washed sample pellets were incubated with 90% methanol to elute the protein-bound PRG-A-04. The elutes from each sample were analyzed by LC/MS as follows. Both standard samples and control samples underwent the same sample processing procedures as the test samples. The LC–MS/MS analysis was performed on a Waters UPLC Acquity I-class plus system coupled to a Qtrap 6500 plus system (Sciex, Framingham, MA). An Aeris 3.6 μm 100 × 2.1 mm column (Phenomenex, Torrance, CA) was used for separation. The mobile phase consisted of solvent A (water containing 0.1% formic acid) and solvent B (acetonitrile containing 0.1% formic acid). Gradient elution was achieved as follows: […], 90% A, 10% B; 0.37–6.0 min, 55% A, 45% B; 6.0–7.0 min, 5% A, 95% B; 7.0–10.0 min, 90% A, 10% B. The flow rate was 0.4 mL/min. The column temperature was 40 °C, and the sample injection volume was 10 µL. After each injection, the autosampler syringe was washed with methanol. […]

[12] = test system: SOD1^G93A−Tg mice; test: Efficacy of feeding combined with i.p. injection in SOD1G93A-Tg ALS mice; format: in vivo, mouse; details: daily feeding from 7 weeks plus i.p. twice weekly from 11 weeks; vehicle about 80%
Experimental: Age-matched WT mice were tested as positive control. […] Mouse movement was recorded.
Meier survival curve of SOD1G93A-Tg ALS mouse model.
Lifespan of PRG-A-01 data was collected from
SOD1G93A-Tg ALS mouse model.

[13] = test system: SOD1^G93A−Tg mice; test: Efficacy of oral (p.o., ASD) administration in SOD1G93A-Tg ALS mice
Experimental: For mice with p.o. injection, the mice were trained for 2 weeks from the age of 7 weeks, and the rotarod test was performed from 9 weeks. Age-matched WT mice were tested as positive control. […] Mouse movement was recorded. The recorded video file was further analyzed using the EthoVision XT 15 software (Noldus, Wageningen, Netherlands).

CYP2C19, sequence (P33261 whole entry): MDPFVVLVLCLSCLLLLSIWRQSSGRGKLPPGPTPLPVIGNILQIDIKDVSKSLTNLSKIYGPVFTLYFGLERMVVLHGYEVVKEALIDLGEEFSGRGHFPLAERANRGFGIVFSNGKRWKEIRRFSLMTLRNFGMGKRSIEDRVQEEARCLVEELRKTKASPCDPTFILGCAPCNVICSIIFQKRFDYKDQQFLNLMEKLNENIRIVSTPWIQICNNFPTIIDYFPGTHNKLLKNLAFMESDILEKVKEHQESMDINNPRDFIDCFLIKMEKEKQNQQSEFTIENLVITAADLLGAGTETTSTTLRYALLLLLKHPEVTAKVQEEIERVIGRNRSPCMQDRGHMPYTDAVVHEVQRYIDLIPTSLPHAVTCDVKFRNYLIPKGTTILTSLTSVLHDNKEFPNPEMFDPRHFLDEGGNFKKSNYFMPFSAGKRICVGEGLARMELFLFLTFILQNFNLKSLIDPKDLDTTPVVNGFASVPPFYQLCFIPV
CYP 2C9, sequence (P11712 whole entry): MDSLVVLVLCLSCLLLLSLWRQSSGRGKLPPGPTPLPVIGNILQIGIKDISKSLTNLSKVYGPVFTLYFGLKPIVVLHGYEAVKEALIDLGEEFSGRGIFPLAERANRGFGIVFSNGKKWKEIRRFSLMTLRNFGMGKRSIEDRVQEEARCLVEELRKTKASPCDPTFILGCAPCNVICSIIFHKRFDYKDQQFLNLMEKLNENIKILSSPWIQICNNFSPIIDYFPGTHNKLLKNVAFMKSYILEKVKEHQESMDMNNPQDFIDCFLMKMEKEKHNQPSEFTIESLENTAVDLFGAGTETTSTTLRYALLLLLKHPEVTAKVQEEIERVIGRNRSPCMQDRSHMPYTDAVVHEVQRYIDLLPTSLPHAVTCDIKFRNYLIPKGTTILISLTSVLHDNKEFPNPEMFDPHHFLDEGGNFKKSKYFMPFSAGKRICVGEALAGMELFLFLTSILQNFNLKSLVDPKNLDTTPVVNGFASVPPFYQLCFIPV
T1 sequence (P00441 whole entry G94A): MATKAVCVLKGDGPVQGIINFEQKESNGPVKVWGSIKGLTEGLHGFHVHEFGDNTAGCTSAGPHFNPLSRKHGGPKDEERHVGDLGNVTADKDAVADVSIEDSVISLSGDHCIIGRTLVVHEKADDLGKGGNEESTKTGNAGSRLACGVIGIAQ
CYP 2D6, sequence (P10635 whole entry): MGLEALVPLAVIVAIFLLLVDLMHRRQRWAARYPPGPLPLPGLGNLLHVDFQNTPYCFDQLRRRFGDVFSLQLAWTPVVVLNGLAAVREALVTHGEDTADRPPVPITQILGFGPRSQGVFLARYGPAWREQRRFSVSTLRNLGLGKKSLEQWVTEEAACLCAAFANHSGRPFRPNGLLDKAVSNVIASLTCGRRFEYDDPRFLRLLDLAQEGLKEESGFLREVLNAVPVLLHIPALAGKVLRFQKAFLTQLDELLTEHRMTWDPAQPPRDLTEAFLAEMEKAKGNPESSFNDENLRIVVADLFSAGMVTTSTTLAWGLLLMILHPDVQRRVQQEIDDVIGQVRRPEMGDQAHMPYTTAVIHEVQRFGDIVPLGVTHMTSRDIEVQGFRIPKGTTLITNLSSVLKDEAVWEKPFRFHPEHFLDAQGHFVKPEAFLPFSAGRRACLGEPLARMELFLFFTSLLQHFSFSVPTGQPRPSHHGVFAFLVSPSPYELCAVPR
CYP 2B6, sequence (P20813 whole entry): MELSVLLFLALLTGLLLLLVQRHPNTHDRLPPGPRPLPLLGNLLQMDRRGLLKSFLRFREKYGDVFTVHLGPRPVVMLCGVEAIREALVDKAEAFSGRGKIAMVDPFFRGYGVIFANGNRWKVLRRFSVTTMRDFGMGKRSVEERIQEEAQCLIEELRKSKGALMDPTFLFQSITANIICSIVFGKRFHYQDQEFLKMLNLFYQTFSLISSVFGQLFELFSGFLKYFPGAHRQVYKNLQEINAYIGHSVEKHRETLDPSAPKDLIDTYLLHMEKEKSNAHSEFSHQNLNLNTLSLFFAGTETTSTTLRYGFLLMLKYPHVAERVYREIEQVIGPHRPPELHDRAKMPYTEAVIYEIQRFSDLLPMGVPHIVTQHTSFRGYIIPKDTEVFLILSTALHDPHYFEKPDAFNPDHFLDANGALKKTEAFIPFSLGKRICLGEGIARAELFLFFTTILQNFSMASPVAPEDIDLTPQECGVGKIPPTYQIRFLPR
CYP 2C8, sequence (P10632 whole entry): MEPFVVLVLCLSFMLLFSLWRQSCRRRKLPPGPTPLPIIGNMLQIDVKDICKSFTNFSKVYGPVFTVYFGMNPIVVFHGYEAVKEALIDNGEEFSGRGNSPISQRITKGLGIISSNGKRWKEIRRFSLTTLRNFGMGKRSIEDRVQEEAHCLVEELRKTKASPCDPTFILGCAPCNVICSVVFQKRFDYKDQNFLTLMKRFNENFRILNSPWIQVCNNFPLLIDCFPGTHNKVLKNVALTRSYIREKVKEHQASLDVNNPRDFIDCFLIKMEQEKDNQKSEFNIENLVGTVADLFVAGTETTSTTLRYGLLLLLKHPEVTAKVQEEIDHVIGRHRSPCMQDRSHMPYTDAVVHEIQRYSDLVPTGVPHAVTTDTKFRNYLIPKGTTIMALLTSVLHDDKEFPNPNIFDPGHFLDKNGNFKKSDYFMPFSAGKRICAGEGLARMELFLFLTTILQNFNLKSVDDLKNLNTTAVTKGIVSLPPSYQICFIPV

**Q.** For COc1cc(C=CCOC2Cc3cc4ccc(=O)oc4cc3OC2(C)C)ccc1[N+](=O)[O-] (stereo not drawn) [PRG-A-04], which “extent of metabolism in liver microsomes” value [1] is on record?
**A.** Its value is “highly metabolized”.

**Q.** And the “stability in plasma” value [2]?
**A.** The value was “stable”.

**Q.** What about the “stability in plasma” value [3] of the same compound?
**A.** Its value is “stable”.

**Q.** And the IC50 [4]?
**A.** The IC50 was greater than 10 µM.

**Q.** And the IC50 [5]?
**A.** The IC50 was greater than 10 µM.

**Q.** And the IC50 [6]?
**A.** The IC50 was greater than 10 µM.

**Q.** What about the IC50 [7] of the same compound?
**A.** The IC50 was greater than 10 µM.

**Q.** And the IC50 [8]?
**A.** Its IC50 is 4.75 µM.

**Q.** And the “% Bound” value ([9]; Dog plasma, concentration 0.2 uM)?
**A.** The value was greater than 99.93%.

**Q.** And the “% Bound” value ([9]; Dog plasma, concentration 2 uM)?
**A.** Its value is 99.95%.

**Q.** What about the “% Bound” value ([9]; Dog plasma, concentration 10 uM) of the same compound?
**A.** Its value is 99.92%.

**Q.** What about the “% Bound” value ([9]; Human plasma, concentration 0.2 uM) of the same compound?
**A.** Its value is greater than 99.92%.

**Q.** And the “% Bound” value ([9]; Human plasma, concentration 2 uM)?
**A.** Its value is 99.97%.

**Q.** What about the “% Bound” value ([9]; Human plasma, concentration 10 uM) of the same compound?
**A.** Its value is 99.97%.

**Q.** What about the “% Bound” value ([9]; Monkey plasma, concentration 0.2 uM) of the same compound?
**A.** The value was greater than 99.94%.

**Q.** What about the “% Bound” value ([9]; Monkey plasma, concentration 2 uM) of the same compound?
**A.** The value was 99.93%.

**Q.** What about the “% Bound” value ([9]; Monkey plasma, concentration 10 uM) of the same compound?
**A.** Its value is 99.89%.

**Q.** What about the “% Bound” value ([9]; Mouse plasma, concentration 0.2 uM) of the same compound?
**A.** Its value is 99.91%.

**Q.** What about the “% Bound” value ([9]; Mouse plasma, concentration 2 uM) of the same compound?
**A.** The value was 99.92%.

**Q.** What about the “% Bound” value ([9]; Mouse plasma, concentration 10 uM) of the same compound?
**A.** Its value is 99.87%.

**Q.** And the “% Bound” value ([9]; Rat plasma, concentration 0.2 uM)?
**A.** The value was 99.9%.

**Q.** What about the “% Bound” value ([9]; Rat plasma, concentration 2 uM) of the same compound?
**A.** Its value is 99.91%.

**Q.** And the “% Bound” value ([9]; Rat plasma, concentration 10 uM)?
**A.** Its value is 99.86%.

**Q.** And the “Brain/Plasma Ratio, M01+3n” value ([10]; 0.5 h)?
**A.** Its value is 2.18.

**Q.** What about the “Brain/Plasma Ratio, M02+3n” value ([10]; 0.5 h) of the same compound?
**A.** The value was 1.54.

**Q.** And the “Brain/Plasma Ratio, M03+3n” value ([10]; 0.5 h)?
**A.** Its value is 1.90.

**Q.** And the “Brain/Plasma Ratio, Mean” value ([10]; 0.5 h)?
**A.** The value was 1.87.

**Q.** And the “Brain/Plasma Ratio, M01+3n” value ([10]; 1 h)?
**A.** Its value is 2.29.

**Q.** And the “Brain/Plasma Ratio, M02+3n” value ([10]; 1 h)?
**A.** The value was 2.02.

**Q.** And the “Brain/Plasma Ratio, M03+3n” value ([10]; 1 h)?
**A.** The value was 2.02.

**Q.** What about the “Brain/Plasma Ratio, M01+3n” value ([10]; 12 h) of the same compound?
**A.** Its value is 1.92.

**Q.** And the “Brain/Plasma Ratio, M02+3n” value ([10]; 12 h)?
**A.** Its value is 1.87.

**Q.** And the “Brain/Plasma Ratio, M03+3n” value ([10]; 12 h)?
**A.** The value was 1.71.

**Q.** What about the “Brain/Plasma Ratio, Mean” value ([10]; 12 h) of the same compound?
**A.** Its value is 1.84.

**Q.** And the “binding affinity to MT-SOD1 versus WT-SOD1” value [11]?
**A.** Its value is “stronger binding affinity to MT-SOD1 than to WT-SOD1 protein”.

**Q.** And the “reduction of motility (rotarod latency) at 18 weeks” value [12]?
**A.** Its value is 50%.

**Q.** What about the “extension of lifespan of ALS mice” value ([13]; oral administration) of the same compound?
**A.** Its value is “up to 3 weeks”.

**Q.** What about the “toxicity on oral administration” value ([13]; p.o. twice a week from 9 weeks) of the same compound?
**A.** Its value is “without toxicity”.

**Q.** And the “reduction of movement (rotarod latency) at 17 weeks” value ([13]; p.o. twice a week from 9 weeks, dose not stated, vehicle about 73%)?
**A.** The value was 45%.
